Measurements taken from US20200247812A1 (Integral Biosciences Private Limited, priority 2018, published 2020).

Target: T1, ALK 5 (Homo sapiens, UniProt P36897)
T1 sequence (P36897 34-503): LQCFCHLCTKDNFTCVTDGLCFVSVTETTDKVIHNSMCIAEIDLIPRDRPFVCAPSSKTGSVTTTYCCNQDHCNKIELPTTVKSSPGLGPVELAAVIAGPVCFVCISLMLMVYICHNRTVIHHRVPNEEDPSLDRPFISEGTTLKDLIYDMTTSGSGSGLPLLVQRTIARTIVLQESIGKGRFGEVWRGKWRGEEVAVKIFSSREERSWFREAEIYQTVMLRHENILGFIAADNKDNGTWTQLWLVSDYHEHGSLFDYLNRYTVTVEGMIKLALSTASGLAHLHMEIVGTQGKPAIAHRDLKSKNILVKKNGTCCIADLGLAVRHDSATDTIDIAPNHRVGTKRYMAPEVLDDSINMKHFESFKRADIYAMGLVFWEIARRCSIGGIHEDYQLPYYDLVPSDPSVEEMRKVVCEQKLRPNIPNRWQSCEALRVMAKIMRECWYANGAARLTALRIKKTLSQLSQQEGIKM
Assay: In vitro kinase assay (ALK5 IC50, LanthaScreen Terbium labeled TR-FRET)
Type: biochemical
Conditions: TGF-β kinase 6 nM, ATP 10 μM, read-out: Enzyme Activity ALK 5 IC50
Experimental: Compounds of the invention were screened in an in vitro kinase assay against ALK 5, a members of the TGF-β family of Ser/Thr kinases. Standard kinase testing conditions and techniques were employed. IC50 values of compounds against TGF-ß kinase was determined by LanthaScreen™ Terbium Labeled TR-FRET assay. Kinase assays were performed in 1X kinase buffer (# PV6135, Invitrogen, Life Technologies Grand Island, N.Y.) where total reaction volume was 10 μL in low-volume 384-well plates (#4511, Corning). Serially diluted compounds (3-fold) were incubated with TGF-β kinase (6 nM) for 10 min, following which a mixture of ATP (10 μM) (# A1852, Sigma, St-Louis, Mo.) and fluorescent-PolyGT substrate (200 nM); Cat # PV3610, Invitrogen, Life Technologies Grand Island, N.Y.) was added and incubated in dark at room temperature for 1 h. After 1 h, 10 μL stop solution containing Terbium labeled antibody (4 nM; Cat # PV3529, Invitrogen, Life Technologies Grand Island, N.Y.) and EDTA (# E5134, Sigma, St-Louis, Mo.; 20 mM) in TR-FRET dilution buffer (Cat # PV3574, Invitrogen, Life Technologies Grand Island, N.Y.) was added. Readings were taken in a Synergy Neo Plate reader (BioTek, Winooski) at single excitation of 340 nm and Dual emission at 495 nm and 520 nm respectively.
The % activity of test samples was calculated as (Sample-Min)×100/(Max −Min). [Max: DMSO control, complete reaction with enzyme with DMSO and Min: No enzyme with DMSO]. Percent inhibition (100-% activity) was fitted to the “four-parameter logistic model” in XLfit for determination of IC50 values.

IC50 | Compound
> 5 µM | CC(=O)Nc1cc(Nc2cc(-c3ccc(C(F)(F)F)nc3)c(=O)[nH]c2C(C)C)ccn1 [Compound 1.56, N-(4-((6-isopropyl-2-oxo-6′-(trifluoromethyl)-1,2-dihydro-[3,3′-bipyridin]-5-yl)amino)pyridin-2-yl)acetamide]
> 5 µM | C[C@H](CO)NC(=O)c1cnccc1Nc1cc(-c2cc(Cl)ccc2F)c(=O)n2c1N(C)CC2 [Compound 1.23, (R)-4-((6-(5-chloro-2-fluorophenyl)-1-methyl-5-oxo-1,2,3,5-tetrahydroimidazo[1,2-a]pyridin-8-yl)amino)-N-(1-hydroxypropan-2-yl)nicotinamide]
> 5 µM | C[C@@H](CO)NC(=O)c1cnccc1Nc1c[nH]c(=O)c(-c2cc(Cl)ccc2F)c1 [Compound 1.2, (S)-4-((5-(5-chloro-2-fluorophenyl)-6-oxo-1,6-dihydropyridin-3-yl)amino)-N-(1-hydroxypropan-2-yl)nicotinamide]
2 to 5 µM | C[C@H](O)CNC(=O)c1cnccc1Nc1cc(-c2cc(Cl)ccc2F)c(=O)[nH]c1N(C)C [Compound 1.9, (S)-4-((5-(5-chloro-2-fluorophenyl)-2-(dimethylamino)-6-hydroxypyridin-3-yl)amino)-N-(2-hydroxypropyl)nicotinamide]
≤ 0.5 µM | CCc1[nH]c(=O)c(-c2cc(Cl)ccc2F)cc1Nc1ccncc1C(=O)NC [Compound 1.72, 4-((5-(5-chloro-2-fluorophenyl)-2-ethyl-6-oxo-1,6-dihydropyridin-3-yl)amino)-N-methylnicotinamide]
≤ 0.5 µM | CN1CCn2c1c(Nc1ccnc3[nH]ccc13)cc(-c1cc(Cl)ccc1F)c2=O [Compound 1.18, 8-((1H-pyrrolo[2,3-b]pyridin-4-yl)amino)-6-(5-chloro-2-fluorophenyl)-1-methyl-2,3-dihydroimidazo[1,2-a]pyridin-5(1H)-one]
2 to 5 µM | CN(C)c1[nH]c(=O)c(-c2cc(Cl)ccc2F)cc1Nc1ccnc2cc(C(F)(F)F)ccc12 [Compound 1.33, 3-(5-chloro-2-fluorophenyl)-6-(dimethylamino)-5-((7-(trifluoromethyl)quinolin-4-yl)amino)pyridin-2(1H)-one]
> 5 µM | CN(C)c1[nH]c(=O)c(-c2cc(Cl)ccc2F)cc1Nc1ccnc2c1ccn2C [Compound 1.28, 3-(5-chloro-2-fluorophenyl)-6-(dimethylamino)-5-((1-methyl-1H-pyrrolo[2,3-b]pyridin-4-yl)amino)pyridin-2(1H)-one]
0.5 to 2 µM | CC(=O)Nc1cc(N(C)c2cc(-c3cc(Cl)ccc3F)c(=O)[nH]c2C(C)C)ccn1 [Compound 1.66, N-(4-((5-(5-chloro-2-fluorophenyl)-2-isopropyl-6-oxo-1,6-dihydropyridin-3-yl)(methyl)amino)pyridin-2-yl)acetamide]
0.5 to 2 µM | CNC(=O)c1cnccc1Nc1cc(-c2cc(Cl)ccc2F)c(=O)[nH]c1N(C)C [Compound 1.38, 4-((5-(5-chloro-2-fluorophenyl)-2-(dimethylamino)-6-oxo-1,6-dihydropyridin-3-yl)amino)-N-methylnicotinamide]
> 5 µM | CN(C)c1[nH]c(=O)c(-c2cc(Cl)ccc2F)cc1Nc1ccncc1C(F)(F)F [Compound 1.15, 3-(5-chloro-2-fluorophenyl)-6-(dimethylamino)-5-((3-(trifluoromethyl)pyridin-4-yl)amino)pyridin-2(1H)-one]
0.5 to 2 µM | COc1[nH]c(=O)c(-c2cc(Cl)ccc2F)cc1Nc1ccnc2ccncc12 [Compound 1.73, 5-((1,6-naphthyridin-4-yl)amino)-3-(5-chloro-2-fluorophenyl)-6-methoxypyridin-2(1H)-one]
> 5 µM | C[C@@H](CO)NC(=O)c1cnccc1Nc1cc(-c2cc(Cl)ccc2F)c(=O)n(C)c1 [Compound 1.8, (S)-4-((5-(5-chloro-2-fluorophenyl)-1-methyl-6-oxo-1,6-dihydropyridin-3-yl)amino)-N-(1-hydroxypropan-2-yl)nicotinamide]
> 5 µM | CC(C)c1[nH]c(=O)c(-c2ccc(F)nc2)cc1Nc1ccnc2[nH]ccc12 [Compound 1.52, 5-((1H-pyrrolo[2,3-b]pyridin-4-yl)amino)-6′-fluoro-6-isopropyl-[3,3′-bipyridin]-2(1H)-one]
≤ 0.5 µM | CCc1[nH]c(=O)c(-c2ccc(F)c(Cl)c2)cc1Nc1ccnc2[nH]ccc12 [Compound 1.90, 5-((1H-pyrrolo[2,3-b]pyridin-4-yl)amino)-3-(3-chloro-4-fluorophenyl)-6-ethylpyridin-2(1H)-one]
> 5 µM | C[C@H](O)CNC(=O)c1cnccc1Nc1cc(-c2cc(Cl)ccc2F)c(=O)n2c1N(C)CCC2 [Compound 1.20, (S)-4-((7-(5-chloro-2-fluorophenyl)-1-methyl-6-oxo-1,3,4,6-tetrahydro-2H-pyrido[1,2-a]pyrimidin-9-yl)amino)-N-(2-hydroxypropyl)nicotinamide]
2 to 5 µM | Cc1cccc(-c2cc(Nc3ccnc4[nH]ccc34)c(N(C)C)[nH]c2=O)n1 [Compound 1.13, 5′-((1H-pyrrolo[2,3-b]pyridin-4-yl)amino)-6′-(dimethylamino)-6-methyl-[2,3′-bipyridin]-2′(1′H)-one]
≤ 0.5 µM | CC(=O)Nc1cc(Nc2cc(-c3ccsc3)c(=O)[nH]c2C(C)C)ccn1 [Compound 1.79, N-(4-((2-isopropyl-6-oxo-5-(thiophen-3-yl)-1,6-dihydropyridin-3-yl)amino)pyridin-2-yl)acetamide]
2 to 5 µM | C[C@H](O)CNC(=O)c1cnccc1Nc1cc(-c2cc(Cl)ccc2F)c(=O)n2c1N(C)CC2 [Compound 1.19, (S)-4-((6-(5-chloro-2-fluorophenyl)-1-methyl-5-oxo-1,2,3,5-tetrahydroimidazo[1,2-a]pyridin-8-yl)amino)-N-(2-hydroxypropyl)nicotinamide]
> 5 µM | C[C@H](O)CNC(=O)c1cnccc1Nc1cc(-c2cc(Cl)ccc2F)c(=O)n(C)c1 [Compound 1.7, (S)-4-((5-(5-chloro-2-fluorophenyl)-1-methyl-6-oxo-1,6-dihydropyridin-3-yl)amino)-N-(2-hydroxypropyl)nicotinamide]
≤ 0.5 µM | NC(=O)c1cnccc1Nc1cc(-c2cc(Cl)ccc2F)c(=O)[nH]c1C1CC1 [Compound 1.74, 4-((5-(5-chloro-2-fluorophenyl)-2-cyclopropyl-6-oxo-1,6-dihydropyridin-3-yl)amino)nicotinamide]
≤ 0.5 µM | CSc1[nH]c(=O)c(-c2cc(Cl)ccc2F)cc1Nc1ccnc2ccncc12 [Compound 1.36, 5-((1,6-naphthyridin-4-yl)amino)-3-(5-chloro-2-fluorophenyl)-6-(methylthio)pyridin-2(1H)-one]
> 5 µM | CC(C)c1[nH]c(=O)c(-c2cc(Cl)ccc2F)cc1Nc1ccnc2[nH]ccc(=O)c12 [Compound 1.59, 5-((5-(5-chloro-2-fluorophenyl)-2-isopropyl-6-oxo-1,6-dihydropyridin-3-yl)amino)-1,8-naphthyridin-4(1H)-one]
≤ 0.5 µM | CCc1[nH]c(=O)c(-c2ccc(F)c(Cl)c2)cc1Nc1ccnc(NC(C)=O)c1 [Compound 1.88, N-(4-((5-(3-chloro-4-fluorophenyl)-2-ethyl-6-oxo-1,6-dihydropyridin-3-yl)amino)pyridin-2-yl)acetamide]
> 5 µM | CC(C)c1[nH]c(=O)c(-c2cc(Cl)ccc2F)cc1Nc1ccnc2c1CCC(=O)N2 [Compound 1.62, 5-((5-(5-chloro-2-fluorophenyl)-2-isopropyl-6-oxo-1,6-dihydropyridin-3-yl)amino)-3,4-dihydro-1,8-naphthyridin-2(1H)-one]
